Key:
Assay type in all cases: in vivo
[1] = tested on: laser-induced glaucomatous eyes in cynomolgus monkeys; test: Intraocular pressure after single topical dose in glaucomatous monkey eyes; settings: for Intraocular Pressure (treated - baseline) (mean ± SEM) / relative activity in decreasing IOP among the compounds tested: glaucomatous monkey eyes; for maximum reduction in IOP (mean SEM) / time for which IOP was reduced (p<0.05): single 25 μl dose of 0.1 percent, laser-induced glaucomatous eyes, cynomolgus monkeys; for relative activity in decreasing IOP among the compounds tested: 0.1 percent; for maximum reduction in IOP (mean±SEM) as compared to baseline / time for which IOP was reduced (p<0.005): single 25 μl dose
Method: Experiments were performed to evaluate the effects of single dose administration of 8-iso PGE2 an IOP in normal (“N”) and glaucomatous (“G”) monkey eyes, and to determine the mechanism by which 8-iso PGE2 alters IOP in N monkey eyes, when applied topically. A single 25 μl dose study was performed in 6 N and 8 G monkeys. IOP and pupil sizes were measured before and at 0 hr, 0.5 hr and then hourly for a total of 6 hrs after 0.05% or 0.1% drug concentrations were administered. Tonographic outflow facility (“C”) and fluorophotometric aqueous humor flow (F) were determined in 6 N monkeys before and after unilateral application of 25 μl of 0.1% 8-iso PGE2. In 8 G monkey eyes, 8-isoPGE2 reduced IOP (p<0.005) up to 2 hrs or 5 hrs following administration of the 0.05% or 0.1% concentration, respectively. The maximum reduction in IOP was 4.6±0.8 (mean±SEM)mm Hg (0.05%) and 6.6±0.8 mm Hg (0.1%), as compared to baseline measurements. After topical application of 8-iso PGE2 the IOP was lower (p<0.01) in the treated eyes of 6 N monkeys for 4 hrs, with a maximum difference of 3.2±0.2 mmHg, as compared to the fellow contralateral control eyes. The pupil size was smaller (p<0.01) for 4 hrs, up to 1.0±0.2 mm. Compared with vehicle-treated contralateral control eyes, C was greater (p<0.005) by 48% at 2 hr after a single dose of 0.1% 8-iso PGE2. F was unchanged (p<0.10) over a period of 4 hrs after drug administration. […] Because of the individual variability in laser-induced glaucomatous monkey eyes, the IOP and facility measurements are expressed in the table as ratios (value of the drug-treated eye+the value of the vehicle-treated eye). The ratios were calculated from the values of the same glaucomatous monkey eye determined immediately prior to administration of the drug or the vehicle (time 0 hrs.), and the values at 2 hours after administration of the drug or vehicle. […] Thus the mechanism of lowering IOP by 8-iso PGE2 in both normal and glaucomatous eyes is primarily due to an increase in aqueous humor trabecular outflow. IOP was measured one hour before and at intervals up to six hours after a single dose of 8-iso PGE, (the 13, 14 dihydro derivative of 8-iso PGE2), 8-iso PGE2, or 8-iso PGF2α in laser-induced glaucomatous eyes in cynomolgus monkeys (wherein only one eye is rendered glaucomatous and the other serves as a control). Following one day of baseline IOP measurement, a single 25 μl dose of either (i) 0.1 percent 8-iso PGE1, or (ii) 0.1 percent 8-iso PGE2, or (iii) 0.1 percent 8-iso PGF2α, was topically applied to the glaucomatous eye in groups of 4 or 8 monkeys. […] The maximum reduction in IOP was 5.3±0.8 (mean SEM) mm Hg at 2 hours after dosing 8-iso PGE2 (0.1 percent) reduced IOP (p<0.05) for 5 hours with a maximum reduction in IOP of 6.6±0.8 mm Hg at 2 hours after dosing (n=8). […] Based on these studies, of the compounds tested, 8-iso PGE2 appears to have the greatest and 8-iso PGF2α, the least activity in decreasing IOP in glaucomatous monkey eyes.

[2] = tested on: normal monkey eyes; test: Intraocular pressure after single topical dose in normal monkey eyes
Method: Experiments were performed to evaluate the effects of single dose administration of 8-iso PGE2 an IOP in normal (“N”) and glaucomatous (“G”) monkey eyes, and to determine the mechanism by which 8-iso PGE2 alters IOP in N monkey eyes, when applied topically. A single 25 μl dose study was performed in 6 N and 8 G monkeys. […] Tonographic outflow facility (“C”) and fluorophotometric aqueous humor flow (F) were determined in 6 N monkeys before and after unilateral application of 25 μl of 0.1% 8-iso PGE2. In 8 G monkey eyes, 8-isoPGE2 reduced IOP (p<0.005) up to 2 hrs or 5 hrs following administration of the 0.05% or 0.1% concentration, respectively. The maximum reduction in IOP was 4.6±0.8 (mean±SEM)mm Hg (0.05%) and 6.6±0.8 mm Hg (0.1%), as compared to baseline measurements. After topical application of 8-iso PGE2 the IOP was lower (p<0.01) in the treated eyes of 6 N monkeys for 4 hrs, with a maximum difference of 3.2±0.2 mmHg, as compared to the fellow contralateral control eyes. The pupil size was smaller (p<0.01) for 4 hrs, up to 1.0±0.2 mm. Compared with vehicle-treated contralateral control eyes, C was greater (p<0.005) by 48% at 2 hr after a single dose of 0.1% 8-iso PGE2. F was unchanged (p<0.10) over a period of 4 hrs after drug administration.

[3] = tested on: normal monkey eyes; test: Pupil size after topical application in normal monkeys
Method: (§1) Experiments were performed to evaluate the effects of single dose administration of 8-iso PGE2 an IOP in normal (“N”) and glaucomatous (“G”) monkey eyes, and to determine the mechanism by which 8-iso PGE2 alters IOP in N monkey eyes, when applied topically. A single 25 μl dose study was performed in 6 N and 8 G monkeys. IOP and pupil sizes were measured before and at 0 hr, 0.5 hr and then hourly for a total of 6 hrs after 0.05% or 0.1% drug concentrations were administered. Tonographic outflow facility (“C”) and fluorophotometric aqueous humor flow (F) were determined in 6 N monkeys before and after unilateral application of 25 μl of 0.1% 8-iso PGE2. In 8 G monkey eyes, 8-isoPGE2 reduced IOP (p<0.005) up to 2 hrs or 5 hrs following administration of the 0.05% or 0.1% concentration, respectively. The maximum reduction in IOP was 4.6±0.8 (mean±SEM)mm Hg (0.05%) and 6.6±0.8 mm Hg (0.1%), as compared to baseline measurements. After topical application of 8-iso PGE2 the IOP was lower (p<0.01) in the treated eyes of 6 N monkeys for 4 hrs, with a maximum difference of 3.2±0.2 mmHg, as compared to the fellow contralateral control eyes. The pupil size was smaller (p<0.01) for 4 hrs, up to 1.0±0.2 mm. Compared with vehicle-treated contralateral control eyes, C was greater (p<0.005) by 48% at 2 hr after a single dose of 0.1% 8-iso PGE2. […]

[4] = tested on: normal monkey eyes; test: Tonographic outflow facility (C) in normal monkeys
Method: Experiments were performed to evaluate the effects of single dose administration of 8-iso PGE2 an IOP in normal (“N”) and glaucomatous (“G”) monkey eyes, and to determine the mechanism by which 8-iso PGE2 alters IOP in N monkey eyes, when applied topically. A single 25 μl dose study was performed in 6 N and 8 G monkeys. […] In 8 G monkey eyes, 8-isoPGE2 reduced IOP (p<0.005) up to 2 hrs or 5 hrs following administration of the 0.05% or 0.1% concentration, respectively. The maximum reduction in IOP was 4.6±0.8 (mean±SEM)mm Hg (0.05%) and 6.6±0.8 mm Hg (0.1%), as compared to baseline measurements. After topical application of 8-iso PGE2 the IOP was lower (p<0.01) in the treated eyes of 6 N monkeys for 4 hrs, with a maximum difference of 3.2±0.2 mmHg, as compared to the fellow contralateral control eyes. The pupil size was smaller (p<0.01) for 4 hrs, up to 1.0±0.2 mm. […] F was unchanged (p<0.10) over a period of 4 hrs after drug administration.

[5] = tested on: normal monkey eyes; test: Fluorophotometric aqueous humor flow (F) in normal monkeys; settings: 6 normal monkeys, over 4 hrs after 25 μl of 0.1%
Method: as §1

[6] = tested on: monkey eyes; test: Ocular side effects after topical dosing in monkey eyes; settings: eyes treated with the 0.1% concentration
Method: as §1

[7] = tested on: glaucomatous monkey eyes; test: Outflow facility in glaucomatous monkey eyes; settings: 0.1%, 8 glaucomatous monkey eyes
Method: Because of the individual variability in laser-induced glaucomatous monkey eyes, the IOP and facility measurements are expressed in the table as ratios (value of the drug-treated eye+the value of the vehicle-treated eye). The ratios were calculated from the values of the same glaucomatous monkey eye determined immediately prior to administration of the drug or the vehicle (time 0 hrs.), and the values at 2 hours after administration of the drug or vehicle. […] Thus the mechanism of lowering IOP by 8-iso PGE2 in both normal and glaucomatous eyes is primarily due to an increase in aqueous humor trabecular outflow.

[8] = 0.1%, 2 hours after treatment, 6 normal monkeys (Table 1A)
[9] = 0.005%, 6 normal monkeys, 1 hour after treatment
[10] = 0.005%, 1 hour after treatment, 6 normal monkeys (Table 1B)

Compound: CCCCC[C@H](O)/C=C/[C@H]1[C@H](O)CC(=O)[C@H]1CCCCCCC(=O)O [8-iso PGE1, 8-iso, 5,6 dihydro prostaglandin E2]
- Intraocular Pressure (treated - baseline) (mean ± SEM) ([1]; 0.1%, 1 hr): −3.3 ± 1.3 mm Hg
- Intraocular Pressure (treated - baseline) (mean ± SEM) ([1]; 0.1%, 2 hr): −5.3 ± 0.8 mm Hg
- Intraocular Pressure (treated - baseline) (mean ± SEM) ([1]; 0.1%, 4 hr): −2.3 ± 0.5 mm Hg
- Intraocular Pressure (treated - baseline) (mean ± SEM) ([1]; 0.1%, 6 hr): −1.3 ± 0.9 mm Hg
- maximum reduction in IOP (mean SEM) [1]: 5.3±0.8 mm Hg
- time for which IOP was reduced (p<0.05) [1]: up to four

Compound: CCCCC[C@H](O)/C=C/[C@H]1[C@H](O)CC(=O)[C@H]1C/C=C\CCCC(=O)O [8-iso PGE2, prosta-5,13-dien-1-oic acid, 11,15-dihydroxy-9-oxo, (5Z, 8β, 11α, 13E,15S)]
- Intraocular Pressure response ratio (drug-treated/vehicle-treated) ([1]; 0.1%, 8 glaucomatous monkey eyes, 2 hr): 0.843 ±
- % change by drug in intraocular pressure (decrease) ([1]; 0.1%, 8 glaucomatous monkey eyes, 2 hr vs 0 hr): 13.8%
- Intraocular Pressure (treated - baseline) (mean ± SEM) ([1]; 0.1%, 1 hr): −4.5 ± 0.9 mm Hg
- Intraocular Pressure (treated - baseline) (mean ± SEM) ([1]; 0.1%, 2 hr): −6.6 ± 0.8 mm Hg
- Intraocular Pressure (treated - baseline) (mean ± SEM) ([1]; 0.1%, 4 hr): −2.9 ± 0.6 mm Hg
- Intraocular Pressure (treated - baseline) (mean ± SEM) ([1]; 0.1%, 6 hr): −1.2 ± 1.2 mm Hg
- relative activity in decreasing IOP among the compounds tested [1]: greatest
- maximum reduction in IOP (mean±SEM) as compared to baseline ([1]; 8 glaucomatous monkey eyes, 0.05%): 4.6±0.8 mm Hg
- time for which IOP was reduced (p<0.005) ([1]; 8 glaucomatous monkey eyes, 0.05% concentration): up to 2 hrs
- maximum reduction in IOP (mean±SEM) as compared to baseline ([1]; 8 glaucomatous monkey eyes, 0.1%): 6.6±0.8 mm Hg
- time for which IOP was reduced (p<0.005) ([1]; 8 glaucomatous monkey eyes, 0.1% concentration): ≤ 5 h
- maximum reduction in IOP (mean SEM) [1]: 6.6±0.8 mm Hg
- time for which IOP was reduced (p<0.05) [1]: 5 h
- Intraocular Pressure Mean ± SEM, treated eyes (drug) ([2]; 0.1%, 6 normal monkeys, 2 hours after treatment): 13.0 ± 0.7 mmHg
- lowering of IOP in normal monkey eye [2, 8]: 20.3%
- maximum difference in IOP as compared to fellow contralateral control eyes ([2]; 6 normal monkeys, topical application): 3.2±0.2 mmHg
- time for which IOP was lower (p<0.01) in treated eyes ([2]; 6 normal monkeys, topical application, vs fellow contralateral control eyes): 4 h
- reduction in pupil size [3]: up to 1.0±0.2 mm
- time for which pupil size was smaller (p<0.01) [3]: 4 h
- increase of outflow facility in normal monkey eye [4, 8]: 43.1%
- outflow facility C greater compared with vehicle-treated contralateral control eyes (p<0.005) ([4]; 6 normal monkeys, 2 hr after single 25 μl dose of 0.1%): 48%
- aqueous humor flow F change [5]: unchanged
- ocular side effects [6]: Mild eyelid edema, conjunctival edema, hyperemia, and discharge appeared in some eyes
- Outflow facility response ratio (drug-treated/vehicle treated) ([7]; 2 hr): 1.445 ±
- % change by drug in outflow facility ([7]; 2 hr vs 0 hr): 38.8%

Compound: CCCCC[C@H](O)/C=C/[C@@H]1[C@H](C/C=C\CCCC(=O)O)[C@@H](O)C[C@H]1O [8-iso PGF2α, prosta-5,13-dien-1-oic acid, 9, 11, 15-trihydroxy-, (5Z, 8β, 9α, 11α, 13E, 15S)-]
- Intraocular Pressure (treated - baseline) (mean ± SEM) ([1]; 0.1%, 1 hr): −3.3 ± 0.8 mm Hg
- Intraocular Pressure (treated - baseline) (mean ± SEM) ([1]; 0.1%, 2 hr): −1.8 ± 1.1 mm Hg
- Intraocular Pressure (treated - baseline) (mean ± SEM) ([1]; 0.1%, 4 hr): −0.8 ± 1.7 mm Hg
- Intraocular Pressure (treated - baseline) (mean ± SEM) ([1]; 0.1%, 6 hr): 0.3 ± 0.5 mm Hg
- relative activity in decreasing IOP among the compounds tested [1]: least
- maximum reduction in IOP (mean SEM) [1]: 3.3±0.9 mm Hg
- time for which IOP was reduced (p<0.05) [1]: only at 1 hour

Compound: CC(C)OC(=O)CCC/C=C\C[C@@H]1[C@@H](CC[C@@H](O)CCc2ccccc2)[C@H](O)C[C@@H]1O [latanoprost, reference compound]
- Intraocular Pressure Mean ± SEM, treated eyes (drug) [2, 9]: 13.2 ± 0.7 mmHg
- lowering of IOP in normal monkey eye [2, 10]: 10.8%
- Outflow Facility Mean ± SEM, treated eyes (drug) [4, 9]: 0.76 ± 0.08 μl/min/mmHg
- effect on outflow facility in normal monkey eye [4, 10]: not significant effect

Reference: patent publication USRE39609E1, “8-iso-prostaglandins for glaucoma therapy” (Mount Sinai School of Medicine of New York University, priority 1997, dated 2007)
